Read-outs that look alike come from different tables or passages of the source.
Legend:
human GCS [1] = target: T1, human GCS (Homo sapiens, UniProt Q16739); experiment: Inhibition of GCS (human recombinant GCS expressed in insect cells); format: biochemical; parameters: made in house; host or cells: insect cells
T1 sequence (Q16739 1-394): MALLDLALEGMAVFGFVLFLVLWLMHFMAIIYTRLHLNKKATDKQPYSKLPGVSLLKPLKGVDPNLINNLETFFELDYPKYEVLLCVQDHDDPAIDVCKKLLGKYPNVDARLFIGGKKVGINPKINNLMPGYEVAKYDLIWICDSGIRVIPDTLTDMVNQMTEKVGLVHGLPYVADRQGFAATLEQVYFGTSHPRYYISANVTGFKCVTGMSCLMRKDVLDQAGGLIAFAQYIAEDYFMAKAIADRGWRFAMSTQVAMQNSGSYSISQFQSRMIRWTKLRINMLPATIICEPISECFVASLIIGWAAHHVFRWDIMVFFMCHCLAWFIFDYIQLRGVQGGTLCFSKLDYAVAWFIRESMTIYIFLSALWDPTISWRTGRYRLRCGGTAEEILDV

[2] = target: T2, non-lysosomal-β-glucocerebrosidase (Homo sapiens, UniProt Q9HCG7); experiment: Inhibition of non-lysosomal-β-glucocerebrosidase (whole cell extracts of MCF7); format: biochemical
T2 construct: endogenous in cells; host or cells: MCF7 whole cell extracts
T2 sequence (Q9HCG7 1-927): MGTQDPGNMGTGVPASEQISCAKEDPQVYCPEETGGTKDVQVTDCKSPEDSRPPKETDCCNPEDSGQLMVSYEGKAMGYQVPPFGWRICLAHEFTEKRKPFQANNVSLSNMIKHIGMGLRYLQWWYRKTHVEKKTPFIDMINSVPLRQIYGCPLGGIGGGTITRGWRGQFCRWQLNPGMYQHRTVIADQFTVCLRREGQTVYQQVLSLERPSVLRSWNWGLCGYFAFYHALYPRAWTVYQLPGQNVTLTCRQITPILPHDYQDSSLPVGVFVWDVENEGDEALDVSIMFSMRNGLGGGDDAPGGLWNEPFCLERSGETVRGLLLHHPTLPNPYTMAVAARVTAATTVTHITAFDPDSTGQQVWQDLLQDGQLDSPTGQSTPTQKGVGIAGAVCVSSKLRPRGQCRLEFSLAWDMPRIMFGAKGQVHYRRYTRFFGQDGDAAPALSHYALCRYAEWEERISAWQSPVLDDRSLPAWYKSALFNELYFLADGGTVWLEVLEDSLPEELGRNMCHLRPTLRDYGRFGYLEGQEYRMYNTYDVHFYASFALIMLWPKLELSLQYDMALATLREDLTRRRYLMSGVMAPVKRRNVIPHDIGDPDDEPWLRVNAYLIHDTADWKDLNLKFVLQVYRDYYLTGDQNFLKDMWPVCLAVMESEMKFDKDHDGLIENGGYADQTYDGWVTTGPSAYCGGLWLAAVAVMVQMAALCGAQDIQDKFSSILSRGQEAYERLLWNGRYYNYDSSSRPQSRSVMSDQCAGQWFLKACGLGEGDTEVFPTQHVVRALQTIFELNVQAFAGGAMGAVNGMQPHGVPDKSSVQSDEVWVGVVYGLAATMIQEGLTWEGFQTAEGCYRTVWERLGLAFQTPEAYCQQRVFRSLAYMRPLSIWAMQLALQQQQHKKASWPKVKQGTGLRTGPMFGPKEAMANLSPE
Method: The assay for inhibition of non-lysosomal-β-glucocerebrosidase was essentially carried out as described in Overkleeft, H. S. et al., J. Biol. Chem., (1998) 273, 26522-26527 with the following differences: whole cell extracts of MCF7 (a human breast carcinoma cell line) was used as the source of the enzyme instead of splenic membrane suspensions; 5mM instead of 3Mm, 4-MU β-glucoside was used as substrate and 0.2M citrate/phosphate (pH 5.8) was used instead of McIlvaine buffer.

human GCS [3] = target: T1, human GCS; experiment: Cell-based IC50 for GCS inhibition by measuring glucosylceramide (GlcCer) depletion in MCF-7 cells; conditions: MCF-7 cells cultured 5-7 days; GlcCer depletion by HPTLC; read-out: Inhibition of GCS Cellular-based (IC50 μM)
glycolipid biosynthesis = conditions: as disclosed in EP-A-0698012; cited from earlier work

## O=C(NCc1ccc(F)cc1)c1ccc(CN2C[C@H](O)[C@@H](O)[C@@H](O)[C@@H]2CO)cc1 [Example 1, Benzamide, N-[(4-fluorophenyl)methyl]4-[[(2S,3S,4R,5S)-3,4,5-trihydroxy-2-(hydroxymethyl)-1-piperidinyl]methyl]-,]
Human GCS [1]
  IC50: 2.2 µM

## OC[C@H]1[C@H](O)[C@H](O)[C@@H](O)CN1Cc1ccc(OCc2ccccc2)cc1 [Example 2, 3,4,5-Piperidinetriol, 2-(hydroxymethyl)-1-[[4-(phenylmethoxy)phenyl]methyl]-, (2S,3S,4R,5S)]
[2]
  IC50: 9.4 µM
Human GCS [3]
  IC50: < 0.1 µM
Human GCS [1]
  IC50: 0.66 µM

## C[C@H](NC(=O)c1ccc(CN2C[C@H](O)[C@@H](O)[C@@H](O)[C@@H]2CO)cc1)c1ccccc1 [Example 3, Benzamide, N-[1-(S)-(phenyl)ethyl]-4-[[(2S,3S,4R,5S)-3,4,5-trihydroxy-2-(hydroxymethyl)-1-piperidinyl]methyl]-,]
[2]
  IC50: 14.9 µM
Human GCS [1]
  IC50: 7.2 µM

## CCCN(CCC)c1ccc(CN2C[C@H](O)[C@@H](O)[C@@H](O)[C@@H]2CO)cc1C#N [Example 4, 3,4,5-Piperidinetriol, 1-[(3-cyano-4-(dipropylamino)phenyl)methyl]-2-(hydroxymethyl), (2S,3S,4R,5S)]
[2]; MCF7 whole cell extract, 5mM 4-MU β-glucoside, citrate/phosphate pH 5.8, read-out: Inhibition of non-lysosomal-β-glucocerebrosidase (IC50 μM)
  IC50: 1.93 µM
Human GCS [1]
  IC50: 0.62 µM

## C[C@@H](NC(=O)c1ccc(CN2C[C@H](O)[C@@H](O)[C@@H](O)[C@@H]2CO)cc1)c1ccccc1 [Example 6, Benzamide, N-[1-(R)-(phenyl)ethyl]4-[[(2S,3S,4R,5S)-3,4,5-trihydroxy-2-(hydroxymethyl)-1-piperidinyl]methyl]-,]
Human GCS [3]
  IC50: 1 µM

## C[C@@H](NC(=O)c1ccc(CN2C[C@H](O)[C@@H](O)[C@@H](O)[C@@H]2CO)cc1)c1ccc(F)cc1 [Example 7, Benzamide, N-[1-(R)-(4-fluorophenyl)ethyl]-4-[[(2S,3S,4R,5S)-3,4,5-trihydroxy-2-(hydroxymethyl)-1-piperidinyl]methyl]-,]
[2]
  IC50: > 100 µM
Human GCS [1]
  IC50: 4.7 µM

## CCCCN1C[C@@H](O)[C@H](O)[C@H](O)[C@@H]1C [NB-DFJ]
Glycolipid biosynthesis
  Inhibition of glycolipid biosynthesis: do not act as inhibitors of glycolipid biosynthesis

## CCCCN1C[C@@H](O)[C@@H](O)[C@H](O)[C@H]1CO [NB-DMJ]
Glycolipid biosynthesis
  Inhibition of glycolipid biosynthesis: do not act as inhibitors of glycolipid biosynthesis

## CCCCN1C[C@H](NC(C)=O)[C@@H](O)[C@H](O)[C@H]1CO [NB-NAG]
Glycolipid biosynthesis
  Inhibition of glycolipid biosynthesis: do not act as inhibitors of glycolipid biosynthesis

Reference: patent publication US7994198B2, “Piperidinetriol derivatives as inhibitors of glycosylceramidsynthase” (Actelion Pharmaceuticals Ltd., priority 2002, dated 2011)
